Laboratory results: US20230277632A1, “MODIFIED PlySs2 LYSINS AND ANTIBIOTIC COMBINATIONS FOR USE AGAINST GRAM-POSITIVE BACTERIA” (ContraFect Corporation, priority 2020, published 2023)
Converted amounts (≈) assume the structure as drawn. “And” between values parts separate entries of the source, which are not always exact repeats. Equal entries are not always repeated.

What was measured:
S. aureus isolates [1] = assay: MIC determination (broth microdilution) against 8 S. aureus isolates; type: cell-based; conditions: CAMHB Ca^2+, unit assumed
Protocol: Suitable methods for assessing the activity of a modified lysin polypeptide as disclosed herein are well known in the art and described in the examples. […] For example, MIC values for a modified lysin polypeptide may be determined against e.g., laboratory Staphylococcus aureus strains, in e.g., Mueller-Hinton broth or Mueller-Hinton broth supplemented with serum, such as horse serum.
The pp296 MICs were determined based on (1) cation-adjusted Mueller-Hinton Broth with 25% horse serum and 0.5 mM DTT (caMHB-HSD); (2) human serum (100% serum); and (3) ICR mice (100% serum). Vancomycin and daptomycin MICs of the isolate strains were determined in accordance with the broth microdilution method as outlined by CLSI. Results of the MIC determination are shown below in Table 2. The bacterial isolates were frozen at −80° C. in skim milk.

S. aureus = assay: pp296 dose fractionation study, neutropenic murine thigh infection model; type: in vivo; conditions: sub-therapeutic daptomycin SC alone, 24 h
Protocol: Each of the pp296 TDDs was fractionated into three regimens, i.e., one-third of the entire dose was administered via IV three times (q8h); one-half of the entire does was administered via IV two times (q12h), or the entire dose was administered via IV once daily over a 24-hour period, for a total of three groups per each TDD.
Untreated control mice (n=3/group) were sacrificed just prior to antibiotic administration, as well as 24 hours later. Animals sacrificed prior to antibiotic administration served as 0-hour control animals, representing initial bacterial burden. The 24-hour control animals received sterile normal saline in the same volume and schedule as the most frequent active drug regimen. […] After the 24-hour treatment period, all animals were euthanized and thighs were cultured quantitatively as described above. The change in bacterial density was calculated for each of the dosing regimen. Comparisons were made between the different regimens of the same total daily dose on bacterial burdens at 24 hours using one-way Analysis of Variance (ANOVA) test followed by Tukey's test where the P value was 0.05.

S. aureus isolates [2] = assay: In vivo efficacy of daptomycin in combination with pp296, neutropenic murine thigh infection model; conditions: 24 h; for Replicate Log10 CFU/thigh data: daptomycin alone
Protocol: Study animals: Specific pathogen-free female ICR mice (average body weight 23 grams) were provided food and water ad libitum and maintained and used in accordance with National Research Council recommendations. Animals were allowed a 48-hour post-delivery acclimation period before every experiment. Mice were rendered transiently neutropenic by injection of cyclophosphamide via intraperitoneal (IP) route at a dose of 150 mg/kg of body weight at four days before bacterial inoculation and 100 mg/kg of body weight at one day before bacterial inoculation.
Neutropenic Thigh Infection Model: Two transfers of the bacterial isolates were performed onto trypticase soy agar plates with 5% sheep blood and placed into an incubator at 37° C. for approximately 24 hours. After an 18-24 hour incubation of the second transfer, a suspension of approximately 10^7 CFU/mL was made for inoculation. Final bacterial inoculum concentrations were confirmed by serial dilution and plating techniques. Thigh infection with the test isolate was produced by intramuscular injection of 0.1 mL of the bacterial inoculum into each thigh of the mice. Antimicrobial therapy was initiated 2 hours after bacterial inoculation, as detailed below.
Untreated control mice (n=3) were sacrificed just prior to antibiotic administration and 24 hours after bacterial inoculation. Animals sacrificed prior to antibiotic initiation served as 0-hour control animals, representing initial bacterial burden. […] Treatment mice (n=3/group) were sacrificed at the end of the 24 hour treatment period. After sacrifice, both thighs for each mouse were homogenized in normal saline. Serial dilutions were plated on Trypticase soy agar with 5% sheep blood and incubated for 18 to 20 hours at 37.0 to determine the CFU. Efficacy was calculated as the change in bacterial density obtained in treated mice after 24 hours compared with the numbers in the 0-hour control animals. Bacterial density represents the average CFU determined from 3 mice, each contributing 2 thighs.
For the 4 S. aureus isolates HPV107, CAIRD426, JMI227, and NRS123, the following sub-therapeutic daptomycin dosage regimen was adopted: 0.76 mg/kg at 0 hrs, 0.4 mg/kg at 4 hrs, 0.24 mg/kg at 10 hrs, and 0.12 mg/kg at 17 hrs.

`CCCCCCCCCC(=O)N[C@@H](Cc1c[nH]c2ccccc12)C(=O)N[C@H](CC(N)=O)C(=O)N[C@@H](CC(=O)O)C(=O)N[C@@H]1C(=O)NCC(=O)N[C@@H](CCCN)C(=O)N[C@@H](CC(=O)O)C(=O)N[C@H](C)C(=O)N[C@@H](CC(=O)O)C(=O)NCC(=O)N[C@H](CO)C(=O)N[C@@H]([C@H](C)CC(=O)O)C(=O)N[C@@H](CC(=O)c2ccccc2N)C(=O)O[C@@H]1C` [Daptomycin, daptomycin] was tested, and the MIC Daptomycin (CAMHB Ca^2+) (S. aureus isolates [1]; ATCC 29213 MSSA) was 1 µg/mL (≈ 0.617 µM), the MIC Daptomycin (CAMHB Ca^2+) (S. aureus isolates [1]; CAIRD426 MRSA) was 1 µg/mL (≈ 0.617 µM) and the MIC Daptomycin (CAMHB Ca^2+) (S. aureus isolates [1]; HPV107 MRSA) was 0.5 µg/mL (≈ 0.309 µM). It also gave an MIC Daptomycin (CAMHB Ca^2+) (S. aureus isolates [1]; JMI227 MRSA) of 0.5 µg/mL (≈ 0.309 µM), an MIC Daptomycin (CAMHB Ca^2+) (S. aureus isolates [1]; JMI4789 MRSA) of 1 µg/mL (≈ 0.617 µM) and an MIC Daptomycin (CAMHB Ca^2+) (S. aureus isolates [1]; NRS100 (COL) MRSA) of 0.5 µg/mL (≈ 0.309 µM). For the same compound, the MIC Daptomycin (CAMHB Ca^2+) (S. aureus isolates [1]; NRS123 (MW2) MRSA) was 1 µg/mL (≈ 0.617 µM), the MIC Daptomycin (CAMHB Ca^2+) (S. aureus isolates [1]; NRS271 MRSA/LRSA) was 0.5 µg/mL (≈ 0.309 µM) and the “bacterial burden vs 0-hour control mice” value (S. aureus) was 0.82±0.44 log10 CFU/thigh. For the same compound, the “Replicate Log10 CFU/thigh data” value (S. aureus isolates [2]; isolate ATCC2921, 0.475/0.25/0.15/0.075 mg/kg at 0/4/10/17 hrs) was 8.02 Log10 CFU/thigh and 8.04 Log10 CFU/thigh and 7.79 Log10 CFU/thigh and 8.03 Log10 CFU/thigh and 6.18 Log10 CFU/thigh and 7.38 Log10 CFU/thigh, the “Replicate Log10 CFU/thigh data” value (S. aureus isolates [2]; isolate CAIRD426, 0.76/0.4/0.24/0.12 mg/kg at 0/4/10/17 hrs) was 8.16 Log10 CFU/thigh and 8.20 Log10 CFU/thigh and 7.59 Log10 CFU/thigh and 8.18 Log10 CFU/thigh and 7.47 Log10 CFU/thigh and 7.35 Log10 CFU/thigh and the “Replicate Log10 CFU/thigh data” value (S. aureus isolates [2]; isolate HPV107, 0.76/0.4/0.24/0.12 mg/kg at 0/4/10/17 hrs) was 7.16 Log10 CFU/thigh and 7.34 Log10 CFU/thigh and 7.24 Log10 CFU/thigh and 7.08 Log10 CFU/thigh and 6.74 Log10 CFU/thigh and 5.77 Log10 CFU/thigh. The “Replicate Log10 CFU/thigh data” value (S. aureus isolates [2]; isolate JMI227, 0.76/0.4/0.24/0.12 mg/kg at 0/4/10/17 hrs) was 5.93 Log10 CFU/thigh and 6.08 Log10 CFU/thigh and 6.48 Log10 CFU/thigh and 6.73 Log10 CFU/thigh and 6.86 Log10 CFU/thigh and 6.89 Log10 CFU/thigh, the “Replicate Log10 CFU/thigh data” value (S. aureus isolates [2]; isolate JMI4789, 0.475/0.25/0.15/0.075 mg/kg at 0/4/10/17 hrs) was 8.00 Log10 CFU/thigh and 6.85 Log10 CFU/thigh and 8.63 Log10 CFU/thigh and 8.52 Log10 CFU/thigh and 8.14 Log10 CFU/thigh and 7.21 Log10 CFU/thigh and the “Replicate Log10 CFU/thigh data” value (S. aureus isolates [2]; isolate NRS100, 0.475/0.25/0.15/0.075 mg/kg at 0/4/10/17 hrs) was 4.83 Log10 CFU/thigh and 5.29 Log10 CFU/thigh and 6.67 Log10 CFU/thigh and 7.76 Log10 CFU/thigh and 6.20 Log10 CFU/thigh and 7.09 Log10 CFU/thigh. The “Replicate Log10 CFU/thigh data” value (S. aureus isolates [2]; isolate NRS123, 0.76/0.4/0.24/0.12 mg/kg at 0/4/10/17 hrs) was 6.73 Log10 CFU/thigh and 7.28 Log10 CFU/thigh and 6.86 Log10 CFU/thigh and 7.09 Log10 CFU/thigh and 5.81 Log10 CFU/thigh and 6.81 Log10 CFU/thigh, the “Replicate Log10 CFU/thigh data” value (S. aureus isolates [2]; isolate NRS217, 0.475/0.25/0.15/0.075 mg/kg at 0/4/10/17 hrs) was 7.94 Log10 CFU/thigh and 7.84 Log10 CFU/thigh and 7.89 Log10 CFU/thigh and 7.92 Log10 CFU/thigh and 8.01 Log10 CFU/thigh and 8.02 Log10 CFU/thigh and the “average bacterial growth vs starting inoculum” value (S. aureus isolates [2]; sub-therapeutic daptomycin alone, 8 isolates) was 1.47±0.80 log10 CFU/thigh.
